Measured values taken from US12691070B2, “Cationic lipids and preparation method thereof” (RiboX Therapeutics HK Limited, priority 2023, dated 2026).

Columns and labels:
[1] = LNP size and polydispersity index (PDI) by dynamic light scattering; format: physicochemical; settings: LNP with cirRNA (SEQ ID NO: 1); for Size: in nm (unit assumed)
Experimental: (§1) Ionizable lipid, DSPC, Cholesterol and DMG-PEG 2000 were mixed at a molar ratio of 50:10:38.5:1.5 in absolute ethanol. Circular RNA and linear mRNA payloads were suspended in 25 mM Acetate Buffer (pH 4.5). To form LNPs, three volumes of luciferase encoding RNA, in the form of cirRNA (SEQ ID NO:1) and mRNA (SEQ ID NO:2) respectively, were mixed with one volume of lipids in ethanol solution by microfluidic mixing with the Nanoassemblr Ignite (Precision Nanosystems) at a flow rate of 12 ml/min. The molar ratio of ionizable lipid to ribonucleotide was 15 or 6. The final lipid concentration in solution ranged from 1.5 mM to 6 mM. After encapsulation, the particles were dialyzed twice against PBS.
(§2) The LNP size and polydispersity index (PDI), determined by dynamic light scattering (DLS), and zeta potential were measured by a Zetasizer machine (Malvern). RNA concentration and encapsulation efficacy were analyzed by the Quant-IT Ribogreen kit by calculating the percentage encapsulation at 100%−(RNA-LNPs/RNA-LNPs with Triton X-100).

[2] = LNP zeta potential (Zetasizer); format: physicochemical; settings: LNP with cirRNA (SEQ ID NO: 1)
Experimental: as §1, §2

[3] = RNA encapsulation efficacy by Quant-IT Ribogreen kit; format: physicochemical; settings: LNP with cirRNA (SEQ ID NO: 1)
Experimental: as §1, §2

Hep G2 cells [4] = assay: In vitro expression of firefly-luciferase, Hep G2; format: cell-based; settings: cirRNA (SEQ ID NO: 1) LNPs; firefly-luciferase luminescence; Hep G2 cells
Experimental: (§3) RAW 264.7 and Hep G2 cells were transfected with 100 ng/mL of RNA-LNPs encoding for firefly-luciferase. At 72 hours post transfection, the cells were washed and lysed. The luciferase expression was determined in the cell lysates with the luciferase assay reagent kit (Promega), according to the kit protocol, luciferase activity was measured by a luminometer.

RAW 264.7 cells [5] = assay: In vitro expression of firefly-luciferase, RAW 264.7; format: cell-based; settings: cirRNA (SEQ ID NO: 1) LNPs; firefly-luciferase luminescence; RAW 264.7 cells
Experimental: as §3

Hep G2 cells [6] = assay: In vitro toxicity (CellTiter-Glo cell viability), Hep G2; format: cell-based; settings: cirRNA (SEQ ID NO: 1) LNPs; Hep G2 cells;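 also: percent of untreated cells luminescence signal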
Experimental: (§4) RAW 264.7 and Hep G2 cells were transfected with 1 μg/mL RNA-LNPs. At 72 hours post transfection, cell viability was determined with the CellTiter-Glo® reagent kit, according to the kit protocol, measured by a luminometer.
(§5) The cell viability was calculated according to the following formula: […]

RAW 264.7 cells [7] = assay: In vitro toxicity (CellTiter-Glo cell viability), RAW 264.7; format: cell-based; settings: cirRNA (SEQ ID NO: 1) LNPs; RAW 264.7 cells;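 also: percent of untreated cells luminescence signal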
Experimental: as §4, §5

BALB/C mice = assay: In vivo expression, whole-body luminescence (IVIS); settings: cirRNA (SEQ ID NO: 1) LNPs, BALB/C mice
Experimental: 6-8 week old, female BALB/C mice were injected with 0.05 mg*kg-1 of RNA-LNPs encoding for firefly-luciferase by intravenous injection. At 6 hours post injection, animals were intraperitoneally injected with 15 mg/ml of Luciferin substrate and whole-body luminescence was determined by a bioluminescent in vivo imaging system (IVIS).

Structure (SMILES) | PDI [1] | Size [1] | Zeta (mV) [2] [mV] | Encapsulation Efficiency % [3] [%] | In vitro Expression HepG2 (Hep G2 cells [4]) | In vitro Expression RAW (RAW 264.7 cells [5]) | In vitro Viability HepG2 (Hep G2 cells [6]) [%] | In vitro Viability RAW (RAW 264.7 cells [7]) [%] | In vivo Expression (Whole Body) (BALB/C mice)
CCCCC/C=C\C/C=C\CCCCCCCCN(CCCCCCCC(=O)OC(CCCCCCCC)CCCCCCCC)CCOC(=O)NCCN1CCN(C)CC1 [Lipid 135, heptadecan-9-yl 8-((2-(((2-(4-methylpiperazin-1-yl)ethyl)carbamoyl)oxy)ethyl)((9Z,12Z)-octadeca-9,12-dien-1-yl)amino)octanoate] | 0.1211 | 150.9 | 8.469 | 100 | 2.30E+06 | 9.80E+04 | 91 | 103 | 3.51E+07
CCCCCCOC(=O)CCCCCCCCCCN(CCCCCCCCCCC(=O)OCCCCCC)CCOC(=O)NCCN(C)C [Lipid 136, hexyl 10-(11-(hexyloxy)-11-oxoundecyl)-2-methyl-6-oxo-7-oxa-2,5,10-triazahenicosan-21-oate] | 0.146 | 143.7 | 16.11 | 95 | 2.15E+03 | 1.93E+02 | 20 | 8 | 6.14E+03
CCCCCCOC(=O)CCCCCCCCCCN(CCCCCCCCCCC(=O)OCCCCCC)CCOC(=O)NCCCN(CC)CC [Lipid 137, hexyl 3-ethyl-12-(11-(hexyloxy)-11-oxoundecyl)-8-oxo-9-oxa-3,7,12-triazatricosan-23-oate] | 0.1423 | 224.1 | 19.29 | 92 | 1.57E+03 | 1.21E+02 | 12 | 9 | 1.84E+05

Second part, led by results:

PDI [1] | Size [1] | Zeta (mV) [2] [mV] | Encapsulation Efficiency % [3] [%] | Structure (SMILES) | In vitro Expression HepG2 (Hep G2 cells [4]) | In vitro Expression RAW (RAW 264.7 cells [5]) | In vitro Viability HepG2 (Hep G2 cells [6]) [%] | In vitro Viability RAW (RAW 264.7 cells [7]) [%] | In vivo Expression (Whole Body) (BALB/C mice)
0.1821 | 130.8 | 15.82 | 96 | CCCCCCOC(=O)CCCCCCCCCCN(CCCCCCCCCCC(=O)OCCCCCC)CCOC(=O)NCCN1CCN(C)CC1 [Lipid 138, dihexyl 11,11′-((2-(((2-(4-methylpiperazin-1-yl)ethyl)carbamoyl)oxy)ethyl)azanediyl)diundecanoate] | 6.75E+01 | 9.75E+01 | 12 | 10 | 1.30E+05
0.2699 | 59.34 | 20.28 | 87 | CCCCCCCCC(CCCCCCCC)OC(=O)CCCCCCCN(CCCCCCCCOC(=O)C(CCCCCC)CCCCCCCC)CCOC(=O)NCCCN(C)C (stereo not drawn) [Lipid 146, heptadecan-9-yl 11-(8-((2-hexyldecanoyl)oxy)octyl)-2-methyl-7-oxo-8-oxa-2,6,11-triazanonadecan-19-oate] | 9.18E+05 | 8.92E+04 | 41 | 99 | 4.74E+06
0.07303 | 53.54 | 4.888 | 86 | CCCCCCCCC(CCCCCCCC)OC(=O)CCCCCCCN(CCCCCCCCOC(=O)C(CCCCCC)CCCCCCCC)CCOC(=O)NCCCn1ccnc1 (stereo not drawn) [Lipid 147, 8-((2-(((3-(1H-imidazol-1-yl)propyl)carbamoyl)oxy)ethyl)(8-(heptadecan-9-yloxy)-8-oxooctyl)amino)octyl 2-hexyldecanoate] | 1.60E+04 | 7.92E+03 | 87 | 65 | 5.02E+07
